According to ChEMBL document CHEMBL1150844, “Isolation and structures of hedaols A, B, and C, new bisnorditerpenes from a Japanese brown alga” (J Nat Prod, 2001):
In brackets after ≈: the same amount, converted by molar mass.

test system: P388; test: Cytotoxicity against mouse P388 cells after 4 days by MTT method; format: functional, cell-based; conditions: P388, 96 h

**Q.** How did the IC50 turn out when `CC(C)=CC(=O)/C=C(/C)CCC/C(C)=C/CC[C@@H](C)O` [HEDAOL A] was run?
**A.** 5.1 µg/mL (≈ 18.3 µM)

**Q.** How did the IC50 turn out when `CC(C)=CC(=O)C/C(C)=C/CC/C(C)=C/CC[C@@H](C)O` [HEDAOL B] was run?
**A.** 2.2 µg/mL (≈ 7.9 µM)

**Q.** `CC(C)=CC(=O)/C=C(\C)CCC/C(C)=C/CC[C@@H](C)O` [HEDAOL C] was tested. Which IC50 did it give?
**A.** 50 µg/mL (≈ 180 µM)
